Test results as given in patent publication US9981972B2, “N-hydroxy bicyclic hydantoin carbamates as tools for identification of serine hydrolase targets” (ABIDE THERAPEUTICS, INC., priority 2014, dated 2018).
“Also recorded” adds a separate entry of the source. Values belong to the compound of their own block, whether it stands above or below them.

Legend:
[1] = target: T1, ABHD3 (Homo sapiens, UniProt Q8WU67); experiment: ABPP-SILAC, PC3 cells treated in situ; assay type: cell-based; details: 4 h in situ, FP-biotin
T1 construct: endogenous in cells; host or cells: PC3
Experimental: (§1) In situ inhibitor treatments of human cell lines were performed as described previously (Hsu et al., J Med Chem 56, 8270-8279, 2012). Briefly, PC3 or transfected HEK293T cells were grown to confluency in serum-containing media (RPMI or DMEM, respectively). The culture media was then removed and replaced with fresh media containing DMSO or inhibitor at the desired concentration and incubated for 4 hours in a tissue culture incubator (37° C., 5% CO2). Cells were then washed with PBS, harvested, washed with PBS once more, and lysed with a probe sonicator.
The activity and selectivity of dual ABHD3/4 and ABHD4-preferring inhibitors in PC3 cells by ABPP-SILAC was assessed. Isotopically heavy and light PC3 cells were treated in situ with inhibitor (Compound 37 (1 μM) or Compound 38 (0.5 μM)) or DMSO for 4 h and then lysed and processed for ABPP-SILAC analysis.

[2] = system: FP-sensitive SHs in the mouse brain membrane proteome; experiment: Gel-based competitive ABPP in vitro, mouse brain membrane proteome, anti-targets; assay type: biochemical
Method in brief: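 Mouse brain membrane proteome (1 mg/mL in DPBS) was treated with compound (0.1-100 μM) for 30 min at 37 °C, then labeled with FP-Rh (2 μM final, 30 min, 25 °C). Bands were resolved by SDS-PAGE and scanned in-gel, with inhibition taken from band optical density versus DMSO. Targets counted as active or anti-targets at ≥50% inhibition.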

[3] = target: T2, endogenous PPT1 (Homo sapiens, UniProt P50897); experiment: PPT1 substrate assay, PC3 cells treated in situ; assay type: cell-based; details: 4 h in situ; for reduction in 4-MUBO hydrolysis activity versus DMSO: 500 nM inhibitor
T2 construct: endogenous in cells; host or cells: PC3
T2 sequence (P50897 28-306): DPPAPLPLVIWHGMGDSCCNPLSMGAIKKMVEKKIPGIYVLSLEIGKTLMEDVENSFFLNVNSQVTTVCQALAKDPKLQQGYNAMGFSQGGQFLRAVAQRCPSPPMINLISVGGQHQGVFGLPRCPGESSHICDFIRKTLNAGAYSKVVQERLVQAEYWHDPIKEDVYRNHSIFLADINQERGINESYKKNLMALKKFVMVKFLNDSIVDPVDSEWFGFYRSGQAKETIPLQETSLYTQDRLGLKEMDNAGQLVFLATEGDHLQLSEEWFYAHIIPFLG
Experimental: PPT1 activity was assessed in vitro using a substrate assay adapted from previous studies (van Diggelen et al., Molecular genetics and metabolism 66, 240-244, 1999). Lysates from HEK293T cells transfected with an empty vector, or human PPT1 under a CMV promoter were adjusted to 1 mg/ml in PBS (25 μl), and then combined 1:1 with Mcllvain's phosphate/citrate buffer containing 0.375% (v/v) Triton-X 100 and 15 mM DTT (pH 5.0). This sample was pre-treated with inhibitor or DMSO for 30 minutes at 37° C., and 10 μl (5 μg protein) was used in the substrate assay as follows: Samples were diluted in a black 96-well plate (half-area) with 20 μl McIlvain's phosphate/citrate buffer (pH 5.0) containing 0.375% TX-100 and 15 mM DTT, as well as 0.64 mM MU-6S-Palm-PD-Glc and 0.1 U sweet almond glucosidase (Sigma). The reactions were incubated at 37° C. for 1 hour, quenched with 120 μl sodium bicarbonate buffer (pH 10.0), and hydrolysis by 4-MU fluorescence measured by excitement at […] and emission intensity at […]. 16 μg protein was used for analysis of native PC3 cells.
as §1
Compound 26 was then tested to see if it inhibited PPT1 activity using a substrate assay. […] In this assay, PPT1 hydrolyzes the substrate's palmitoyl thioester bond, and exogenous sweet almond β-glucosidase deglycosylates and frees the fluorophore, 4-methylumbelliferone (4-MU), which is measured to assess PPT1 activity.

T1 sequence (Q8WU67 whole entry): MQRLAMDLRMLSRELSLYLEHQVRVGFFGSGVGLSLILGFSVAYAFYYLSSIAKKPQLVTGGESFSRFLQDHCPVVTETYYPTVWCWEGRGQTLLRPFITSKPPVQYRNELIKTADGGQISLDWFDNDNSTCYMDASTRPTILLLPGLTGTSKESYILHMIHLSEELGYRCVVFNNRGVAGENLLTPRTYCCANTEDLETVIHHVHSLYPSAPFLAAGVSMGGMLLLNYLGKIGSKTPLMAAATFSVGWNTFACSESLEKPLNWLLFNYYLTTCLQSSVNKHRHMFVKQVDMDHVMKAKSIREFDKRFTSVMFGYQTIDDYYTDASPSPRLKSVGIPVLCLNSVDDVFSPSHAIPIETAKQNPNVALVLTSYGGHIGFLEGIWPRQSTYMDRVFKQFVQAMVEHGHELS

Structure (SMILES): O=C(ON1C(=O)C2CN(C(=O)N3CCOCC3)CCN2C1=O)N1CCC(CCc2ccc(Cl)cc2)CC1 (stereo not drawn) [Compound 1, 7-(morpholine-4-carbonyl)-1,3-dioxohexahydroimidazo[1,5-a]pyrazin-2(3H)-yl 4-(4-chloro-phenethyl)piperidine-1-carboxylate]
- Anti-target(s) 1 μM ([2]; SHs with at least 50% inhibition at 1 μM compound): ABHD6
- Anti-target(s) 10 μM ([2]; SHs with at least 50% inhibition at 10 μM compound): FAAH,; also recorded: ABHD6
- Anti-target(s) 100 μM ([2]; SHs with at least 50% inhibition at 100 μM compound): FAAH,; also recorded: ABHD12,; also recorded: MAGL,; also recorded: ABHD6

Structure (SMILES): COc1ccc(N2CCN(C(=O)ON3C(=O)C4CN(CC5CCN(Cc6ccccc6)CC5)CCN4C3=O)CC2)cc1 (stereo not drawn) [Compound 26, 7-((1-benzylpiperidin-4-yl)methyl)-1,3-dioxohexahydroimidazo[1,5-a]pyrazin-2(3H)-yl 4-(4-methoxyphenyl)piperazine-1-carboxylate]
- reduction in 4-MUBO hydrolysis activity versus DMSO [3]: substantial reductions
- reduction in endogenous PPT1 activity ([3]; 500 nM, MU-6S-Palm-βD-Glc substrate assay): 90%

The next lines start with results.

- inhibition of ABHD3 in PC3 cells ([1]; 0.5 μM): inhibit both ABHD3 and ABHD4
Structure (SMILES): O=C(ON1C(=O)C2CN(Cc3ccc(Oc4ccccc4)cc3)CCN2C1=O)N1CCC(c2ccccc2)CC1 (stereo not drawn) [Compound 38, 1,3-dioxo-7-(4-phenoxybenzyl)hexahydroimidazo[1,5-a]pyrazin-2(3H)-yl 4-phenylpiperidine-1-carboxylate]
- concentration-dependent profiling, ABHD3 and ABHD4 ([2]; mouse brain membrane SHs, FIG. 7B): promising lead inhibitor for ABHD3 and ABHD4

- reduction in 4-MUBO hydrolysis activity versus DMSO [3]: not
Structure (SMILES): O=C(ON1C(=O)C2CN(Cc3ccc(Oc4ccccc4)cc3)CCN2C1=O)N1CCOCC1 (stereo not drawn) [Compound 34, 1,3-dioxo-7-(4-phenoxybenzyl)hexahydroimidazo[1,5-a]pyrazin-2(3H)-yl morpholine-4-carboxylate]

- inhibition at 1 µM ([1]; PC-3, 1 μM): ~80%
Structure (SMILES): COc1ccc(N2CCN(C(=O)ON3C(=O)C4CN(Cc5ccc(Oc6ccccc6)cc5)CCN4C3=O)CC2)cc1 (stereo not drawn) [Compound 37, 1,3-dioxo-7-(4-phenoxybenzyl)hexahydroimidazo[1,5-a]pyrazin-2(3H)-yl 4-(4-methoxyphenyl)piperazine-1-carboxylate]
